Data: patent US10357493B2, “Metalloenzyme inhibitor compounds” (Selenity Therapeutics (Bermuda), Ltd., priority 2017, dated 2019)
Like-named read-outs stand apart in the source and are kept apart here.

How the values were obtained:
HDAC1 = HDAC1 (Homo sapiens (Human), UniProt Q13547); assay: HDAC1 enzymatic assay; assay type: biochemical
Procedure, shortened: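 HDAC1 activity was measured in duplicate 50 μl reactions containing 0.5 ng HDAC1, 10 uM of HDAC substrate, and test compound in buffer (50 mM Tris-HCl, pH 7.4, 137 mM NaCl, 2.7 mM KCl, 0.05% Tween 20, 5 μg BSA) with 1% DMSO, incubated 17 hours at room temperature. HDAC Developer was then added for 20 minutes and fluorescence read at 360/460 nm.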

HDAC2 = HDAC2 (Homo sapiens (Human), UniProt Q92769); assay: HDAC2 enzymatic assay; assay type: biochemical; conditions: selectivity profile; read-out: HDAC Enzyme IC50, HDAC 2
Method: (§1) All enzymatic reactions were conducted in duplicate at room temperature for 17 hours in a 50 μl mixture containing HDAC assay buffer (50 mM Tris-HCl, pH 7.4, 137 mM NaCl, 2.7 mM KCl, 0.05% Tween 20, 5 μg BSA), an HDAC substrate, an HDAC enzyme, and a test compound. Compound dilution was prepared ten-fold higher than the final concentration of the compounds with 10% DMSO in HDAC assay buffer and 5 μl of the dilution was added to a 50 μl reaction so that the final concentration of DMSO is 1% in all of reactions. After enzymatic reactions, 50 μl of HDAC Developer was added to each well and the plate was incubated at room temperature for an additional 20 minutes. Fluorescence intensity was measured at an excitation of 360 nm and an emission of 460 nm using a Tecan Infinite M1000 or Biotek Synergy microplate reader.
(§2) The fluorescent intensity data were analyzed using the computer software, Graphpad Prism. In the absence of the compound, the fluorescent intensity (Ft) in each data set was defined as 100% activity. In the absence of HDAC, the fluorescent intensity (Fb) in each data set was defined as 0% activity. The percent activity in the presence of each compound was calculated according to the following equation: % activity=(F−Fb)/(Ft−Fb), where F=the fluorescent intensity in the presence of the compound.
(§3) The values of % activity versus a series of compound concentrations were then plotted using non-linear regression analysis of Sigmoidal dose-response curve generated with the equation Y=B+(T−B)/1+10((Log EC50−X)×Hill Slope), where Y=percent activity, B=minimum percent activity, T=maximum percent activity, X=logarithm of compound and Hill Slope=slope factor or Hill coefficient. The IC50 value was determined by the concentration causing a half-maximal percent activity.
(§4) HDAC1 enzymatic assays contained 0.5 ng HDAC1 and 10 uM of HDAC substrate. HDAC2 enzymatic assays contained 0.5 ng HDAC2 and 10 uM of HDAC substrate. HDAC3 enzymatic assays contained 0.4 ng HDAC3/NCOR2 and 10 uM of HDAC substrate. HDAC4 enzymatic assays contained 0.02 ng HDAC4 and 2 uM of HDAC substrate. HDAC5 enzymatic assays contained 0.5 ng HDAC5 and 2 uM of HDAC substrate. HDAC6 enzymatic assays contained 2 ng HDAC6 and 10 uM of HDAC substrate. HDAC7 enzymatic assays contained 0.05 ng HDAC7 and 2 uM of HDAC substrate. HDAC8 enzymatic assays contained 5 ng HDAC8 and 2 uM of HDAC substrate. HDAC9 enzymatic assays contained 1 ng HDAC9 and 2 uM of HDAC substrate. HDAC10 enzymatic assays contained 75 ng HDAC10 and 10 uM of HDAC substrate. HDAC11 enzymatic assays contained 5 ng HDAC11 and 2 uM of HDAC substrate.

HDAC3/NCOR2 = HDAC3/NCOR2 (Homo sapiens (Human), UniProt O15379); assay: HDAC3 enzymatic assay; assay type: biochemical; conditions: selectivity profile; read-out: HDAC Enzyme IC50, HDAC 3
Method: as §1, §2, §3, §4

HDAC4 = HDAC4 (Homo sapiens (Human), UniProt P56524); assay: HDAC4 enzymatic assay; assay type: biochemical; conditions: selectivity profile; read-out: HDAC Enzyme IC50, HDAC 4
Method: as §1, §2, §3, §4

HDAC5 = HDAC5 (Homo sapiens (Human), UniProt Q9UQL6); assay: HDAC5 enzymatic assay; assay type: biochemical; conditions: selectivity profile; read-out: HDAC Enzyme IC50, HDAC 5
Method: as §1, §2, §3, §4

HDAC6 = HDAC6 (Homo sapiens (Human), UniProt Q9UBN7); assay: HDAC6 enzymatic assay; assay type: biochemical
Procedure, shortened: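 Human HDAC6 activity was measured in duplicate 50 μl reactions holding 2 ng HDAC6, 10 uM of HDAC substrate and test compound in HDAC assay buffer (50 mM Tris-HCl, pH 7.4, 137 mM NaCl, 2.7 mM KCl, 0.05% Tween 20, 5 μg BSA) with 1% DMSO, for 17 hours at room temperature. HDAC Developer was added for 20 minutes before reading fluorescence at 360/460 nm.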

HDAC7 = HDAC7 (Homo sapiens (Human), UniProt Q8WUI4); assay: HDAC7 enzymatic assay; assay type: biochemical; conditions: selectivity profile; read-out: HDAC Enzyme IC50, HDAC 7
Method: as §1, §2, §3, §4

HDAC8 = HDAC8 (Homo sapiens (Human), UniProt Q9BY41); assay: HDAC8 enzymatic assay; assay type: biochemical; conditions: selectivity profile; read-out: HDAC Enzyme IC50, HDAC 8
Method: as §1, §2, §3, §4

HDAC9 = HDAC9 (Homo sapiens (Human), UniProt Q9UKV0); assay: HDAC9 enzymatic assay; assay type: biochemical; conditions: selectivity profile; read-out: HDAC Enzyme IC50, HDAC 9
Method: as §1, §2, §3, §4

HDAC10 = HDAC10 (Homo sapiens (Human), UniProt Q969S8); assay: HDAC10 enzymatic assay; assay type: biochemical; conditions: selectivity profile; read-out: HDAC Enzyme IC50, HDAC 10
Method: as §1, §2, §3, §4

HDAC11 = HDAC11 (Homo sapiens (Human), UniProt Q96DB2); assay: HDAC11 enzymatic assay; assay type: biochemical; conditions: selectivity profile; read-out: HDAC Enzyme IC50, HDAC 11
Method: as §1, §2, §3, §4

[1] = Mouse Pharmacokinetics, oral single dose; assay type: in vivo, male Swiss Albino mice; conditions: male, Swiss Albino, plasma, 5 mg/kg, formulation by footnote: a 20% CremEL in H20, b 1% CMC in water, c 2% DMSO, 0.2% Tween80, 97.8% of 1% CMC
Method: Example 187: Mouse Pharmacokinetics
A dose of 5 mg/kg in an appropriate formulation was administered by oral gavage to fasted male Swiss Albino mice (n=3), and the plasma was collected at 0, 0.25, 0.5, 1, 2, 4, 8, and 24 h. Plasma levels were measured by HPLC/MS/MS methods and the pharmacokinetic parameters were determined for individual animals from plasma concentration-time data using noncompartmental model 200-202 in Phoenix WinNonlin 6.3.

[2] = selectivity profile, read-out: HDAC Enzyme IC50, HDAC 1
[3] = selectivity profile, read-out: HDAC Enzyme IC50, HDAC 6

Sequence of HDAC5 (Q9UQL6 whole entry, species assumed): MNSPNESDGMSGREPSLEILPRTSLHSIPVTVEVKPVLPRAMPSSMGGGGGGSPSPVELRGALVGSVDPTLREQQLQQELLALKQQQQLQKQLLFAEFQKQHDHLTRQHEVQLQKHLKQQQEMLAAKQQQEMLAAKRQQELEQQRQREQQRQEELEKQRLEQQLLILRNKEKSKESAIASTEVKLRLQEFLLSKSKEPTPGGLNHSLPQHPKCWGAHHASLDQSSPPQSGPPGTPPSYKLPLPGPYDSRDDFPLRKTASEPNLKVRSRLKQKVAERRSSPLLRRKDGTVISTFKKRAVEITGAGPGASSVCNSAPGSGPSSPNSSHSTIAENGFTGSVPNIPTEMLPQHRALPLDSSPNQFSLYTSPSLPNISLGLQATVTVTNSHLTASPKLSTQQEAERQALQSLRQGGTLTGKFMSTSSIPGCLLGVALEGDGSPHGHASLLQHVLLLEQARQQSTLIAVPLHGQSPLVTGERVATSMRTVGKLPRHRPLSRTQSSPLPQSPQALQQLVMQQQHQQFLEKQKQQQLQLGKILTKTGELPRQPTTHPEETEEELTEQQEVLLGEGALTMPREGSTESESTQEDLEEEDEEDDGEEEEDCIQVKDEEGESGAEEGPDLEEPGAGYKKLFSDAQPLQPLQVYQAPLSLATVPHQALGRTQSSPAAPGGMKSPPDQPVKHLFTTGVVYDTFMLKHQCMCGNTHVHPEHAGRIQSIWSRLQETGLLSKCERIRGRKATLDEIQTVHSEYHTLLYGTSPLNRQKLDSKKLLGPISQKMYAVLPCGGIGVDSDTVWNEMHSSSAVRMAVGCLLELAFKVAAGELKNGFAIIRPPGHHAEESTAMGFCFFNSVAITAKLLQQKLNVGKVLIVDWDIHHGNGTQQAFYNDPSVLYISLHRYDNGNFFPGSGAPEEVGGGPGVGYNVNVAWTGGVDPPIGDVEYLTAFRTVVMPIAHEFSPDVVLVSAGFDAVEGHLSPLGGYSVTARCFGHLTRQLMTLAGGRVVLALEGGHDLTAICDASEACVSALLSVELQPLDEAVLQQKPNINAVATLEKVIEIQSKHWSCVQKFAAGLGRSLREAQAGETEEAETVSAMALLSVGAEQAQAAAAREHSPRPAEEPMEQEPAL
Sequence of HDAC2 (Q92769 whole entry, species assumed): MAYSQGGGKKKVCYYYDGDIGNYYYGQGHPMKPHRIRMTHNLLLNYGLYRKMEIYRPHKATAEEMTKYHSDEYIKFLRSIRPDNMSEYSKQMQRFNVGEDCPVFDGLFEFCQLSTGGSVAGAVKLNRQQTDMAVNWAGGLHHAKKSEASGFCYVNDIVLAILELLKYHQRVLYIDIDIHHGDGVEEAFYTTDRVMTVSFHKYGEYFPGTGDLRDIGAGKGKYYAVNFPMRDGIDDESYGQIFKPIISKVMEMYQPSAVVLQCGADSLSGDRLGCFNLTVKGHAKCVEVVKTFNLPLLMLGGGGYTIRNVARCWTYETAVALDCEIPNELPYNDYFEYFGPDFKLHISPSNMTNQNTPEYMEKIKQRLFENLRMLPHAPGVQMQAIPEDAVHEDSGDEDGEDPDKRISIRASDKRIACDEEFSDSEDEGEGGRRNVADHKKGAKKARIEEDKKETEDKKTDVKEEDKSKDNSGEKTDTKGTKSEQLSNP
Sequence of HDAC3/NCOR2 (O15379 whole entry, looked up, species assumed): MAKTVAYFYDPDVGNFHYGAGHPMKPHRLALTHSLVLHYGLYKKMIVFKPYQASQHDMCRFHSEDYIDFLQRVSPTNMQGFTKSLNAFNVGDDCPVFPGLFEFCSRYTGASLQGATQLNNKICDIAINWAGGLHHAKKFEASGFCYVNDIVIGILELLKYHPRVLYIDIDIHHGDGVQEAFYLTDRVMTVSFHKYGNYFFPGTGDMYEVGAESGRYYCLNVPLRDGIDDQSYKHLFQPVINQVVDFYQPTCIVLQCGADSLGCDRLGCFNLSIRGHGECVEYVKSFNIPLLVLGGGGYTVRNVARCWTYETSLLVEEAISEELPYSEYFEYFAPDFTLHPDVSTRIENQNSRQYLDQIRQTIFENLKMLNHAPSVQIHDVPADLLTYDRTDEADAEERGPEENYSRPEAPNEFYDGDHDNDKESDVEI
Sequence of HDAC3/NCOR2 (Q9Y618 whole entry partner, looked up, species assumed): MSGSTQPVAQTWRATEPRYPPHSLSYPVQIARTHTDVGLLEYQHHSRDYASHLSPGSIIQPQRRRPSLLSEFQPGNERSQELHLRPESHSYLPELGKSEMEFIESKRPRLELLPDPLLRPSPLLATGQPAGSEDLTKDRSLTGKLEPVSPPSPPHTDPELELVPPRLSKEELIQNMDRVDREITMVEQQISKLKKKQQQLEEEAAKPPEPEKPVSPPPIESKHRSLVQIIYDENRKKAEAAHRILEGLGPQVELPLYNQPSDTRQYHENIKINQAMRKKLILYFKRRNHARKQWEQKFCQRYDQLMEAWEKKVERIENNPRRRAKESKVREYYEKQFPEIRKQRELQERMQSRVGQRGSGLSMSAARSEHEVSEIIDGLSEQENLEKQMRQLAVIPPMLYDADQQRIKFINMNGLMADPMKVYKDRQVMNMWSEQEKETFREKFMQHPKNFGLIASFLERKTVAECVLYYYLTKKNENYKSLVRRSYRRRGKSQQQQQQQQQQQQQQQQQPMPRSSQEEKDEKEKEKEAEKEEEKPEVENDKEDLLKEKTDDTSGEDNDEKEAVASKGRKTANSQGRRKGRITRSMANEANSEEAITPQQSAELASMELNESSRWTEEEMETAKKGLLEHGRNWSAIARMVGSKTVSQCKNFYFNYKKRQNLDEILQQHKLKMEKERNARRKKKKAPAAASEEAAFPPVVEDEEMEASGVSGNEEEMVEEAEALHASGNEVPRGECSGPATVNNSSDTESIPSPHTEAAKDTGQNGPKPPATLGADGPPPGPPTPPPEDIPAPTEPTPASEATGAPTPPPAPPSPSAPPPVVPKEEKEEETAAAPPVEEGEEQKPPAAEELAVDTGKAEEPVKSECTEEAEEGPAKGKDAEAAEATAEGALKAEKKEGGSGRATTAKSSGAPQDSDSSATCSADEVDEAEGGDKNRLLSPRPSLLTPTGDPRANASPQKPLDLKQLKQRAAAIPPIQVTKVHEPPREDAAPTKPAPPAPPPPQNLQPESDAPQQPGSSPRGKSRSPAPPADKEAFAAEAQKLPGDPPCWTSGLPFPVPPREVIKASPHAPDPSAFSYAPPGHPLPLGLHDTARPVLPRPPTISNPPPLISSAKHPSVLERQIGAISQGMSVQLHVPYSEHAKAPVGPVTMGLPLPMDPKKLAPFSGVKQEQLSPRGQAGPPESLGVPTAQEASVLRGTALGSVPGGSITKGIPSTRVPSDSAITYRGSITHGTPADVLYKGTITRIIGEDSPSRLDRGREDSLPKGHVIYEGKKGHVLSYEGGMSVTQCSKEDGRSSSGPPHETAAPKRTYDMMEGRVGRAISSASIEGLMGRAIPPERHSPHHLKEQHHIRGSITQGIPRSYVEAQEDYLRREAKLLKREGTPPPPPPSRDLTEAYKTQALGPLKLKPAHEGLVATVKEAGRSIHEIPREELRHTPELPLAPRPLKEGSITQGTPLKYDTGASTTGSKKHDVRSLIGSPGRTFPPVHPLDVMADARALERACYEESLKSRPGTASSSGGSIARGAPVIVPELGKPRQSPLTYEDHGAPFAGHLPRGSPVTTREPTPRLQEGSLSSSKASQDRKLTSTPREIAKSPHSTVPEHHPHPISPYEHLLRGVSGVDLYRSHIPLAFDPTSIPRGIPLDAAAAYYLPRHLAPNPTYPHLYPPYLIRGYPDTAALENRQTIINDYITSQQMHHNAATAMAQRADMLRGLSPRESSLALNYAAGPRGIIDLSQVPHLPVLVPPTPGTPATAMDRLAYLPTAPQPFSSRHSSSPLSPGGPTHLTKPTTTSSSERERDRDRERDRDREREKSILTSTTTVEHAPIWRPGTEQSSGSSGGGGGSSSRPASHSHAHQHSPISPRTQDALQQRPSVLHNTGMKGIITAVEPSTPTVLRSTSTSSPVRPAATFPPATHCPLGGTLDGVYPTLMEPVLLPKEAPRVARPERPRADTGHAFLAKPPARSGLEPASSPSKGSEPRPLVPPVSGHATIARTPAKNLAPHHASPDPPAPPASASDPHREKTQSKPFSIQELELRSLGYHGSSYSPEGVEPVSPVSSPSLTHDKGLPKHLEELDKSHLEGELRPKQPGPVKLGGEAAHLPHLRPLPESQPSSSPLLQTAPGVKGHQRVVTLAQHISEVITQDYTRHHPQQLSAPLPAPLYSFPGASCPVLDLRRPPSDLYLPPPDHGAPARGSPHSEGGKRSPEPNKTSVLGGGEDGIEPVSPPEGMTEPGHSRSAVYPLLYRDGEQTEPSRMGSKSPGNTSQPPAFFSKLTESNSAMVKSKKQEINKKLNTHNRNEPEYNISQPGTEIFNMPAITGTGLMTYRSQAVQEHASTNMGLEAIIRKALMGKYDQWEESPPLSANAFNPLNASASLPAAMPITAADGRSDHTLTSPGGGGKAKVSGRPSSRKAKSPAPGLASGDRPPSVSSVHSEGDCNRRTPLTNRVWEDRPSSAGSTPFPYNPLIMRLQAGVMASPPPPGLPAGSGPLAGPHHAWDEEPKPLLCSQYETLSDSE
Sequence of HDAC1 (Q13547 whole entry): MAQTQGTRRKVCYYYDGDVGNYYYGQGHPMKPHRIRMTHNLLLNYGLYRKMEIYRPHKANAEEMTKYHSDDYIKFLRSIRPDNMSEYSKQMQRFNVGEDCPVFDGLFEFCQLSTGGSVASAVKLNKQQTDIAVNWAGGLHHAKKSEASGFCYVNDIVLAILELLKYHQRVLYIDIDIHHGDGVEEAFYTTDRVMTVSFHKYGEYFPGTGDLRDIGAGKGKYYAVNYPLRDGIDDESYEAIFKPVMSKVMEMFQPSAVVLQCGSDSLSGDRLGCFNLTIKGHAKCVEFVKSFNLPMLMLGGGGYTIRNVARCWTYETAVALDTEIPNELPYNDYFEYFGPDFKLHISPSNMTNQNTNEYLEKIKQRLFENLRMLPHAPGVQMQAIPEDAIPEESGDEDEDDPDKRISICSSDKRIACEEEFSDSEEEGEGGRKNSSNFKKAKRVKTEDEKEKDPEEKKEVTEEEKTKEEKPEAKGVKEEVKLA

Row | IC50 (HDAC1; read-out: Human HDAC1 IC50) | IC50 (HDAC1; [2]) | IC50 (HDAC2) | IC50 (HDAC3/NCOR2) | IC50 (HDAC4) | IC50 (HDAC5) | IC50 (HDAC6; read-out: Human HDAC6 IC50) | IC50 (HDAC6; [3]) | IC50 (HDAC7) | IC50 (HDAC8) | IC50 (HDAC9) | IC50 (HDAC10) | IC50 (HDAC11) | Cmax [1] | half-life [1] | SMILES
1 | > 30 µM | > 30 µM | > 30 µM | > 30 µM | > 30 µM | > 30 µM | 0.029 µM | 0.029 µM | > 30 µM | > 30 µM | > 30 µM | > 30 µM | > 30 µM | 697 ng/mL | 23.2 h | CS(=O)(=O)N(CC(Nc1ncc(-c2nnc(C(F)F)o2)cn1)c1ccc(F)cc1)CC(F)(F)F (single isomer, unassigned) [118(+), N-(2-((5-(5-(difluoromethyl)-1,3,4-oxadiazol-2-yl)pyrimidin-2-yl)amino)-2-(4-fluorophenyl)ethyl)-N-(2,2,2-trifluoroethyl)methanesulfonamide]
2 | > 30 µM | > 30 µM | > 30 µM | > 30 µM | 8.4 µM | > 30 µM | 0.031 µM | 0.031 µM | 26.7 µM | > 30 µM | > 30 µM | > 30 µM | > 30 µM | 2930 ng/mL | 18.4 h | CS(=O)(=O)NCC(Nc1ncc(-c2nnc(C(F)F)o2)cn1)c1ccc(OC(F)(F)F)cc1 (single isomer, unassigned) [122(+), N-(2-((5-(5-(difluoromethyl)-1,3,4-oxadiazol-2-yl)pyrimidin-2-yl)amino)-2-(4-(trifluoromethoxy)phenyl)ethyl)methanesulfonamide]
3 | > 30 µM | > 30 µM | > 30 µM | > 30 µM | > 30 µM | > 30 µM | 0.028 µM | 0.028 µM | > 30 µM | > 30 µM | > 30 µM | > 30 µM | > 30 µM | 830 ng/mL | 4.3 h | O=S(=O)(NCC(Nc1ncc(-c2nnc(C(F)F)o2)cn1)c1ccc(F)cc1)C1CC1 (stereo not drawn) [Example 110, N-(2-((5-(5-(difluoromethyl)-1,3,4-oxadiazol-2-yl)pyrimidin-2-yl)amino)-2-(4-fluorophenyl)ethyl)cyclopropanesulfonamide]
